EC50 data for 15 compounds are collected here from BindingDB's records for doi:10.1016/j.ejmech.2013.09.015 (China Pharmaceutical University, 2013).

This experiment is described as follows: Agonist activity at VDR in human HL60 cells assessed as induction of cell differentiation after 96 hrs by NBT reduction assay.
As for `CCn1c(C(=O)N[C@@H](C)C(=O)O)ccc1C(CC)(CC)c1ccc(OCC(O)C(C)(C)C)c(C)c1` (stereo not given in full), the EC50 worked out at 4.1 nM.
Then `CCC(CC)(c1ccc(OCC(O)C(C)(C)C)c(C)c1)c1ccc(C(=O)NCCC(=O)O)n1C` (stereo not given), with 1600 nM; and `CCC(CC)(c1ccc(OCC(O)C(C)(C)C)c(C)c1)c1ccc(C(=O)NCC(=O)O)n1C` (stereo not given), with 4950 nM; and `CCC(CC)(c1ccc(OCC(=O)C(C)(C)C)c(C)c1)c1ccc(C(=O)N[C@@H](CC(=O)O)C(=O)O)n1C`, with 410 nM.
Then `CCC(CC)(c1ccc(OCC(=O)C(C)(C)C)c(C)c1)c1ccc(C(=O)N[C@@H](C)C(=O)O)n1C`, with 2630 nM; and `CCn1c(C(=O)N[C@H](CO)CCO)ccc1C(CC)(CC)c1ccc(OCC(O)C(C)(C)C)c(C)c1` (stereo not given in full), with 110 nM.
As for `CCn1c(C(=O)N[C@@H](C)CO)ccc1C(CC)(CC)c1ccc(OCC(O)C(C)(C)C)c(C)c1` (stereo not given in full), the figure is 1.1 nM; as for `CCn1c(C(=O)NCCO)ccc1C(CC)(CC)c1ccc(OCC(O)C(C)(C)C)c(C)c1` (stereo not given), 5640 nM; as for `CCC(CC)(c1ccc(OCC(O)C(C)(C)C)c(C)c1)c1ccc(C(=O)N[C@H](CO)CCO)n1C` (stereo not given in full), 200 nM.
Take `CCC(CC)(c1ccc(OCC(O)C(C)(C)C)c(C)c1)c1ccc(C(=O)N[C@@H](C)CO)n1C` (stereo not given in full): the EC50 worked out at 570 nM.
`CCC(CC)(c1ccc(OCC(O)C(C)(C)C)c(C)c1)c1ccc(C(=O)NCCCO)n1C` (stereo not given): the EC50 came to 150 nM.
As for `CCn1c(C(=O)NCC(=O)OC)ccc1C(CC)(CC)c1ccc(OCC(=O)C(C)(C)C)c(C)c1`, the figure is 1830 nM; as for `CCC(CC)(c1ccc(OCC(=O)C(C)(C)C)c(C)c1)c1ccc(C(=O)NCCC(=O)OC)n1C`, 790 nM; as for `CCC(CC)(c1ccc(OCC(=O)C(C)(C)C)c(C)c1)c1ccc(C(=O)NCC(=O)OC)n1C`, 23 nM.
For the compound `C=C1/C(=C\C=C2/CCC[C@]3(C)[C@@H]([C@H](C)CC[C@@H](O)C(C)C)CC[C@@H]23)C[C@@H](O)C[C@@H]1O` [TACALCITOL], the EC50 amounted to 7.1 nM.
